Laboratory results reported in the NIST ThermoML archive (doi:10.1021/acs.jced.9b00752).
Numbers after ± are expanded uncertainties.

Assay: mn = molality of the nth substance listed, in mol/kg
Details: 100 kPa, Liquid, Vibrating tube method

N[C@@H](Cc1c[nH]c2ccccc12)C(=O)O [L-tryptophan] + O
mass density [kg/m3]
Details | m1 = 0.0035 | m1 = 0.009 | m1 = 0.0179 | m1 = 0.0306 | m1 = 0.0352 | m1 = 0.0429 | m1 = 0.0536 | m1 = 0.0595 | m1 = 0.0659 | m1 = 0.0769
273.65 K | 1000.09 ± 0.12 | 1000.46 ± 0.12 | 1001.04 ± 0.12 | 1001.86 ± 0.12 | 1002.16 ± 0.12 | 1002.66 ± 0.12 | 1003.36 ± 0.12 | 1003.74 ± 0.12 | 1004.14 ± 0.12 | 1004.85 ± 0.12
274.15 K | 1000.12 ± 0.12 | 1000.48 ± 0.12 | 1001.06 ± 0.12 | 1001.88 ± 0.12 | 1002.18 ± 0.12 | 1002.68 ± 0.12 | 1003.38 ± 0.12 | 1003.75 ± 0.12 | 1004.16 ± 0.12 | 1004.87 ± 0.12
274.65 K | 1000.14 ± 0.12 | 1000.5 ± 0.12 | 1001.08 ± 0.12 | 1001.9 ± 0.12 | 1002.2 ± 0.12 | 1002.7 ± 0.12 | 1003.39 ± 0.12 | 1003.77 ± 0.12 | 1004.17 ± 0.12 | 1004.88 ± 0.12
275.15 K | 1000.15 ± 0.12 | 1000.52 ± 0.12 | 1001.09 ± 0.12 | 1001.91 ± 0.12 | 1002.22 ± 0.12 | 1002.71 ± 0.12 | 1003.4 ± 0.12 | 1003.78 ± 0.12 | 1004.18 ± 0.12 | 1004.88 ± 0.12
275.65 K | 1000.17 ± 0.12 | 1000.53 ± 0.12 | 1001.11 ± 0.12 | 1001.92 ± 0.12 | 1002.23 ± 0.12 | 1002.72 ± 0.12 | 1003.41 ± 0.12 | 1003.79 ± 0.12 | 1004.19 ± 0.12 | 1004.89 ± 0.12
276.15 K | 1000.18 ± 0.12 | 1000.54 ± 0.12 | 1001.11 ± 0.12 | 1001.93 ± 0.12 | 1002.23 ± 0.12 | 1002.73 ± 0.12 | 1003.41 ± 0.12 | 1003.79 ± 0.12 | 1004.19 ± 0.12 | 1004.89 ± 0.12
276.65 K | 1000.18 ± 0.12 | 1000.54 ± 0.12 | 1001.12 ± 0.12 | 1001.93 ± 0.12 | 1002.23 ± 0.12 | 1002.72 ± 0.12 | 1003.41 ± 0.12 | 1003.78 ± 0.12 | 1004.19 ± 0.12 | 1004.88 ± 0.12
277.15 K | 1000.18 ± 0.12 | 1000.55 ± 0.12 | 1001.12 ± 0.12 | 1001.93 ± 0.12 | 1002.23 ± 0.12 | 1002.72 ± 0.12 | 1003.41 ± 0.12 | 1003.78 ± 0.12 | 1004.18 ± 0.12 | 1004.88 ± 0.12
277.65 K | 1000.18 ± 0.12 | 1000.54 ± 0.12 | 1001.11 ± 0.12 | 1001.92 ± 0.12 | 1002.22 ± 0.12 | 1002.72 ± 0.12 | 1003.4 ± 0.12 | 1003.77 ± 0.12 | 1004.17 ± 0.12 | 1004.87 ± 0.12
278.15 K | 1000.17 ± 0.12 | 1000.53 ± 0.12 | 1001.1 ± 0.12 | 1001.91 ± 0.12 | 1002.21 ± 0.12 | 1002.7 ± 0.12 | 1003.39 ± 0.12 | 1003.76 ± 0.12 | 1004.16 ± 0.12 | 1004.85 ± 0.12
278.65 K | 1000.16 ± 0.12 | 1000.52 ± 0.12 | 1001.09 ± 0.12 | 1001.9 ± 0.12 | 1002.2 ± 0.12 | 1002.69 ± 0.12 | 1003.37 ± 0.12 | 1003.74 ± 0.12 | 1004.14 ± 0.12 | 1004.83 ± 0.12
279.15 K | 1000.15 ± 0.12 | 1000.51 ± 0.12 | 1001.08 ± 0.12 | 1001.88 ± 0.12 | 1002.18 ± 0.12 | 1002.67 ± 0.12 | 1003.35 ± 0.12 | 1003.72 ± 0.12 | 1004.12 ± 0.12 | 1004.81 ± 0.12
279.65 K | 1000.13 ± 0.12 | 1000.49 ± 0.12 | 1001.06 ± 0.12 | 1001.86 ± 0.12 | 1002.16 ± 0.12 | 1002.65 ± 0.12 | 1003.33 ± 0.12 | 1003.7 ± 0.12 | 1004.09 ± 0.12 | 1004.78 ± 0.12
280.15 K | 1000.11 ± 0.12 | 1000.47 ± 0.12 | 1001.03 ± 0.12 | 1001.84 ± 0.12 | 1002.13 ± 0.12 | 1002.62 ± 0.12 | 1003.3 ± 0.12 | 1003.67 ± 0.12 | 1004.07 ± 0.12 | 1004.75 ± 0.12
280.65 K | 1000.09 ± 0.12 | 1000.44 ± 0.12 | 1001.01 ± 0.12 | 1001.81 ± 0.12 | 1002.11 ± 0.12 | 1002.59 ± 0.12 | 1003.27 ± 0.12 | 1003.64 ± 0.12 | 1004.03 ± 0.12 | 1004.72 ± 0.12
281.15 K | 1000.06 ± 0.12 | 1000.41 ± 0.12 | 1000.98 ± 0.12 | 1001.78 ± 0.12 | 1002.07 ± 0.12 | 1002.56 ± 0.12 | 1003.23 ± 0.12 | 1003.6 ± 0.12 | 1004 ± 0.12 | 1004.68 ± 0.12
281.65 K | 1000.02 ± 0.12 | 1000.38 ± 0.12 | 1000.94 ± 0.12 | 1001.74 ± 0.12 | 1002.04 ± 0.12 | 1002.52 ± 0.12 | 1003.2 ± 0.12 | 1003.56 ± 0.12 | 1003.96 ± 0.12 | 1004.64 ± 0.12
282.15 K | 999.99 ± 0.12 | 1000.34 ± 0.12 | 1000.9 ± 0.12 | 1001.71 ± 0.12 | 1002 ± 0.12 | 1002.48 ± 0.12 | 1003.15 ± 0.12 | 1003.52 ± 0.12 | 1003.92 ± 0.12 | 1004.6 ± 0.12
282.65 K | 999.95 ± 0.12 | 1000.3 ± 0.12 | 1000.87 ± 0.12 | 1001.66 ± 0.12 | 1001.96 ± 0.12 | 1002.44 ± 0.12 | 1003.11 ± 0.12 | 1003.48 ± 0.12 | 1003.87 ± 0.12 | 1004.56 ± 0.12
283.15 K | 999.908 ± 0.12 | 1000.26 ± 0.12 | 1000.82 ± 0.12 | 1001.62 ± 0.12 | 1001.91 ± 0.12 | 1002.39 ± 0.12 | 1003.06 ± 0.12 | 1003.43 ± 0.12 | 1003.82 ± 0.12 | 1004.5 ± 0.12
